Results as given in patent US20200375975A1, “Treatment of Renal Cell Carcinoma with Lenvatinib and Everolimus” (Eisai R&D Management Co., Ltd., priority 2016, published 2020).

How the values were obtained:
[1] = test system: patients with unresectable advanced or metastatic renal cell carcinoma (RCC); assay: Same Phase 2 trial: PFS and ORR by retrospective independent blinded review of scans; format: in vivo, human; details: combo 18 mg+5 mg; everolimus 10 mg
[2] = test system: patients with unresectable advanced or metastatic renal cell carcinoma (RCC); assay: Same Phase 2 trial: laboratory abnormalities, Grade 3-4; format: in vivo, human; details: combo (head prints 10 mg+5 mg), LENVIMA 24 mg, everolimus 10 mg
Source text: Table 4 provides a summary of laboratory abnormalities observed in the patients in the RCC trial described in Example 1.

[3] = test system: patients with unresectable advanced or metastatic renal cell carcinoma (RCC); assay: Same Phase 2 trial: adverse reactions (CTCAE grades), once daily dosing;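 also: adverse events are any unwanted sign, symptom, abnormal lab finding or disease occurring in time with treatment, whether or not drug-related, and CTCAE grade expresses their severity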
Experimental: The CTCAE provides a grading (severity) scale for each adverse event term. […] The CTCAE grade refers to the severity of the AE.
The safety data described below are derived from the trial described in Example 1, which randomized (1:1:1) patients with unresectable advanced or metastatic renal cell carcinoma (RCC) to LENVIMA® 18 mg+everolimus 5 mg (n=51), LENVIMA® 24 mg (n=52), or everolimus 10 mg (n=50) once daily.

[4] = test system: patients with unresectable advanced or metastatic renal cell carcinoma (RCC); assay: Phase 2 trial in RCC after one prior VEGF-targeted treatment: efficacy (PFS, OS, ORR), investigator assessment, RECIST 1.1; LENVIMA 18 mg+everolimus 5 mg vs LENVIMA 24 mg vs everolimus 10 mg; details: combo 18 mg+5 mg
Experimental: A multicenter, randomized, open-label, trial was conducted to determine the safety and efficacy of lenvatinib administered alone or in combination with everolimus in subjects with unresectable advanced or metastatic renal cell carcinoma (RCC). The trial consisted of a Phase 1b dose finding and a Phase 2 portion. The Phase 2 portion enrolled a total of 153 patients with unresectable advanced or metastatic RCC following one prior VEGF-targeted treatment. Patients were required, inter alia, to have histological confirmation of predominant clear cell RCC, radiographic evidence of disease progression according to Response Evaluation Criteria in Solid Tumors Version 1.1 (RECIST), one prior VEGF-targeted therapy, and Eastern Cooperative Oncology Group (ECOG) Performance Status of 0 or 1.
Patients were randomly allocated to one of 3 arms: (i) LENVIMA® (mesylate salt of lenvatinib) 18 mg+everolimus 5 mg, (ii) LENVIMA® 24 mg, or (iii) everolimus 10 mg, using a 1:1:1 ratio. Patients were stratified by hemoglobin level (≤13 g/dL vs. >13 g/dL for males and ≤11.5 g/dL vs >11.5 g/dL for females) and corrected serum calcium (≥10 mg/dL vs. <10 mg/dL).
The primary efficacy outcome measure, based on investigator assessed tumor response, was progression-free survival (PFS) of the LENVIMA® plus everolimus arm vs. the everolimus arm and of the LENVIMA® arm vs. the everolimus arm. Other efficacy outcome measures included investigator-assessed overall survival (OS) and objective response rate (ORR).
Tumor assessments were evaluated according to RECIST.

[5] = cited from earlier work
[6] = LENVIMA 24 mg, everolimus 10 mg
[7] = combo 18 mg+5 mg, LENVIMA 24 mg, everolimus 10 mg
[8] = everolimus 10 mg, cutoff Jul. 31, 2015
[9] = everolimus 10 mg, cutoff Jun. 13, 2014
[10] = combo 18 mg+5 mg, LENVIMA 24 mg

## CO[C@H]1C[C@@H]2CC[C@@H](C)[C@@](O)(O2)C(=O)C(=O)N2CCCC[C@H]2C(=O)O[C@H]([C@H](C)C[C@@H]2CC[C@@H](OCCO)[C@H](OC)C2)CC(=O)[C@H](C)/C=C(\C)[C@@H](O)[C@@H](OC)C(=O)[C@H](C)C[C@H](C)/C=C/C=C/C=C/1C [Everolimus, (1R,9S,12S,15R,16E,18R,19R,21R,23 S,24E,26E,28E,30S,32S,35R)-1,18-dihydroxy-12-{(1R)-2-[(1 S,3R,4R)-4-(2-hydroxyethoxy)-3-methoxycyclohexyl]-1-methylethyl}-19,30-dimethoxy-15,17,21,23,29,35-hexamethyl-11,36-dioxa-4-aza-tricyclo[30.3.1.0^4,9]hexatriaconta-16,24,26,28-tetraene-2,3,10,14,20-pentaone]
[1]
  ORR, independent blinded review: no subject had an objective response
[2]
  Alkaline phosphatase increased, Grades 3-4: 0%
  Aspartate aminotransferase (AST) increased, Grades 3-4: 0%
  Hemoglobin decreased, Grades 3-4: 16%
  Hyperglycemia, Grades 3-4: 16%
  Hyperkalemia, Grades 3-4: 2%
  Hypocalcemia, Grades 3-4: 2%
  Hypokalemia, Grades 3-4: 2%
  Hyponatremia, Grades 3-4: 6%
  Hypophosphatemia, Grades 3-4: 6%
  Lipase increased, Grades 3-4: 12%
  Lymphocyte count decreased, Grades 3-4: 20%
  Platelet count decreased, Grades 3-4: 0%
[2]; listed as everolimus
  Aspartate aminotransferase (AST) increased, Grades 3-4: no patients
[3]; [6]
  arterial thromboembolic events, Grade 3 or greater: 4%
[3]; [7]
  Adverse reactions led to dose reductions or interruption, patients: 54%
  Arthralgia/myalgia, All Grades: 32%
  Arthralgia/myalgia, Grades 3-4: 0%
  Confusional state, All Grades: 0%
  Confusional state, Grades 3-4: 0%
  Constipation, All Grades: 18%
  Constipation, Grades 3-4: 0%
  Cough, All Grades: 30%
  Cough, Grades 3-4: 0%
  Decreased appetite, All Grades: 18%
  Decreased appetite, Grades 3-4: 0%
  Decreased weight, All Grades: 8%
  Decreased weight, Grades 3-4: 0%
  Dehydration, All Grades: 2%
  Dehydration, Grades 3-4: 0%
  Diarrhea, All Grades: 34%
  Diarrhea, Grades 3-4: 2%
  Discontinuation of treatment due to hemorrhagic events, patients: no discontinuations
  Dyspepsia, All Grades: 12%
  Dyspepsia, Grades 3-4: 0%
  Dysphonia, All Grades: 4%
  Dysphonia, Grades 3-4: 0%
  Dyspnea, All Grades: 28%
  Dyspnea, Grades 3-4: 8%
  Epistaxis, All Grades: 24%
  Epistaxis, Grades 3-4: 0%
  Events of renal impairment: 12%
  Fatigue, All Grades: 38%
  Gastrointestinal disorders and Abdominal pain, All Grades: 8%
  Gastrointestinal disorders and Abdominal pain, Grades 3-4: 0%
  Grade 3 or greater diarrhea, patients: 2%
  Grade 3 or greater renal failure or impairment, incidence: 2%
  Headache, Grades 3-4: 2%
  Hypertension, All Grades: 10%
  Hypertension, Grades 3-4: 2%
  Insomnia, All Grades: 2%
  Insomnia, Grades 3-4: 0%
  Musculoskeletal chest pain, All Grades: 4%
  Musculoskeletal chest pain, Grades 3-4: 0%
  Nausea, All Grades: 16%
  Nausea, Grades 3-4: 0%
  Oral inflammation, All Grades: 50%
  Oral inflammation, Grades 3-4: 4%
  Oral pain, All Grades: 4%
  Oral pain, Grades 3-4: 0%
  Proteinuria, All Grades: 14%
  Proteinuria, Grades 3-4 (text: Grade 3 or greater): 2%
  Pruritus, All Grades: 14%
  Pruritus, Grades 3-4: 0%
  Pyrexia, All Grades: 10%
  QT/QTc interval prolongation, patients: No reports
  Rash, All Grades: 30%
  Rash, Grades 3-4: 0%
  Renal failure events, All Grades: 2%
  Renal failure events, Grades 3-4: 2%
  Vomiting, Grades 3-4: 0%
  arterial thromboembolic events, patients: 6%
  decreased ejection fraction and cardiac failure, Grade 3: 2%
  decreased ejection fraction and cardiac failure, patients: 4%
  epistaxis, Grade 1: 20%
  gastrointestinal perforation or fistula, patients: no patients
  hemorrhagic events, Grade 3 or greater: 2%
  hemorrhagic events, patients: 28%
  hypothyroidism, patients: 2%
  patients discontinued treatment for adverse reactions: 6 (12%) n (%)
[3]; combo 18 mg+5 mg, everolimus 10 mg
  elevation of TSH level post baseline in patients with a normal TSH at baseline: none
[3]; everolimus 10 mg
  epistaxis, Grade 2: 4%
[4]; everolimus 10 mg
  Number of complete responses (%): 0 n (%)
  Number of partial responses (%): 3 (6) n (%)
  Number of progressive disease (%): 12 (24) n (%)
  Number of stable disease (%): 31 (62) n (%)
[4]; [8]
  Overall Survival (updated analysis): Number of deaths, n (%): 37 (74) n (%)
[4]; [9]
  Overall Survival: Number of deaths (%): 26 (52) n (%)

## COc1cc2nccc(Oc3ccc(NC(=O)NC4CC4)c(Cl)c3)c2cc1C(N)=O [LENVIMA ®, 4-[3-chloro-4-(N′-cyclopropylureido)phenoxy]-7-methoxyquinoline-6-carboxamide methanesulfonate]
[2]
  Alkaline phosphatase increased, Grades 3-4: 0%
  Aspartate aminotransferase (AST) increased, Grades 3-4: 4%
  Hemoglobin decreased, Grades 3-4: 4%
  Hyperglycemia, Grades 3-4: 8%
  Hyperkalemia, Grades 3-4: 2%
  Hypokalemia, Grades 3-4: 8%
  Hyponatremia, Grades 3-4: 6%
  Hypophosphatemia, Grades 3-4: 4%
  Lipase increased, Grades 3-4: 10%
  Lymphocyte count decreased, Grades 3-4: 4%
  Platelet count decreased, Grades 3-4: 2%
[2]; listed as LENVIMA®, methanesulfonate
  Hypocalcemia, Grades 3-4: no patients
[5]; ethanol (dehydrated)
  solubility in ethanol (dehydrated): practically insoluble
[5]; water
  solubility in water: slightly soluble
[3]; [6]
  arterial thromboembolic events, Grade 3 or greater: 8%
[3]; [10]
  QT/QTc interval prolongation, Grade 3 or greater events: No Grade 3 or greater events
  fatal hemorrhage cases: one case of fatal intracranial hemorrhage
[3]; [7]
  Arthralgia/myalgia, All Grades: 56%
  Arthralgia/myalgia, Grades 3-4: 4%
  Confusional state, All Grades: 4%
  Confusional state, Grades 3-4: 2%
  Cough, All Grades: 17%
  Cough, Grades 3-4: 2%
  Decreased appetite, All Grades: 58%
  Decreased appetite, Grades 3-4: 4%
  Decreased weight, All Grades: 50%
  Decreased weight, Grades 3-4: 6%
  Dehydration, All Grades: 2%
  Dehydration, Grades 3-4: 0%
  Dysphonia, All Grades: 37%
  Dysphonia, Grades 3-4: 0%
  Dyspnea, All Grades: 25%
  Dyspnea, Grades 3-4: 2%
  Epistaxis, All Grades: 8%
  Epistaxis, Grades 3-4: 0%
  Fatigue, All Grades: 52%
  Headache, Grades 3-4: 6%
  Insomnia, All Grades: 15%
  Insomnia, Grades 3-4: 0%
  Musculoskeletal chest pain, All Grades: 15%
  Musculoskeletal chest pain, Grades 3-4: 4%
  Pruritus, All Grades: 6%
  Pruritus, Grades 3-4: 0%
  Pyrexia, All Grades: 10%
  QT/QTc interval prolongation, patients: 6%
  Rash, All Grades: 15%
  Rash, Grades 3-4: 0%
  Renal failure events, All Grades: 10%
  Renal failure events, Grades 3-4: 6%
  Vomiting, Grades 3-4: 4%
[4]; everolimus 10 mg
  Duration of response, months, median (95% CI): 7.5 (3.8, NE) months
  Number of complete responses (%): 0 n (%)
  Number of partial responses (%): 14 (27) n (%)
  Number of progressive disease (%): 3 (6) n (%)
  Number of stable disease (%): 27 (52) n (%)
[4]; [8]
  Median OS in months (95% CI), updated analysis: 19.1 (13.6, 26.2) months
  Overall Survival (updated analysis): Number of deaths, n (%): 34 (65) n (%)
[4]; [9]
  Median OS in months (95% CI): 18.4 (13.3, NE) months
  Median PFS in months (95% CI): 7.4 (5.6, 10.2) months
  Overall Survival: Number of deaths (%): 26 (50) n (%)
[4]; vs everolimus 10 mg
  PFS compared with the everolimus arm (in words): improvement
